± gives the expanded uncertainty stated by the source.
Experiment: xn = mol fraction of the nth substance listed
Settings: Fluid (supercritical or subcritical phases), Spherical resonator

Q: With `N#N` [nitrogen] + C as the compound, how does the speed of sound (220 K, 14891 kPa, x1 = 0.2) read?
A: 470.66 ± 0.77 m/s

Q: And the speed of sound (220 K, 16024 kPa, x1 = 0.2)?
A: 497.89 ± 0.81 m/s

Q: And the speed of sound (220 K, 16645 kPa, x1 = 0.1)?
A: 562.65 ± 0.91 m/s

Q: What about the speed of sound (220 K, 17031 kPa, x1 = 0.2) of the same compound?
A: 521.17 ± 0.85 m/s

Q: And the speed of sound (220 K, 18043 kPa, x1 = 0.1)?
A: 596.39 ± 0.96 m/s

Q: And the speed of sound (220 K, 18088 kPa, x1 = 0.2)?
A: 544.6 ± 0.88 m/s

Q: What about the speed of sound (220 K, 19087 kPa, x1 = 0.2) of the same compound?
A: 565.86 ± 0.92 m/s

Q: What about the speed of sound (220 K, 19556 kPa, x1 = 0.2) of the same compound?
A: 575.49 ± 0.93 m/s

Q: And the speed of sound (220 K, 19985 kPa, x1 = 0.1)?
A: 639.27 ± 1 m/s

Q: What about the speed of sound (220 K, 25037 kPa, x1 = 0.2) of the same compound?
A: 675.84 ± 1.1 m/s

Q: What about the speed of sound (220 K, 30201 kPa, x1 = 0.2) of the same compound?
A: 753.84 ± 1.2 m/s

Q: And the speed of sound (250 K, 99.6 kPa, x1 = 0.2)?
A: 387.32 ± 0.64 m/s

Q: What about the speed of sound (250 K, 105 kPa, x1 = 0.2) of the same compound?
A: 387.33 ± 0.64 m/s

Q: What about the speed of sound (250 K, 199.6 kPa, x1 = 0.1) of the same compound?
A: 398.92 ± 0.66 m/s

Q: What about the speed of sound (250 K, 249.1 kPa, x1 = 0.2) of the same compound?
A: 386.69 ± 0.64 m/s

Q: What about the speed of sound (250 K, 249.5 kPa, x1 = 0.2) of the same compound?
A: 386.7 ± 0.64 m/s

Q: What about the speed of sound (250 K, 405.3 kPa, x1 = 0.5422) of the same compound?
A: 353.38 ± 0.59 m/s

Q: And the speed of sound (250 K, 498.3 kPa, x1 = 0.2)?
A: 385.62 ± 0.64 m/s

Q: And the speed of sound (250 K, 499.1 kPa, x1 = 0.1)?
A: 397.32 ± 0.65 m/s

Q: What about the speed of sound (250 K, 499.1 kPa, x1 = 0.2) of the same compound?
A: 385.63 ± 0.64 m/s

Q: And the speed of sound (250 K, 596.4 kPa, x1 = 0.5422)?
A: 353.08 ± 0.59 m/s

Q: What about the speed of sound (250 K, 998.2 kPa, x1 = 0.2) of the same compound?
A: 383.53 ± 0.63 m/s

Q: What about the speed of sound (250 K, 998.9 kPa, x1 = 0.2) of the same compound?
A: 383.54 ± 0.63 m/s

Q: And the speed of sound (250 K, 999.8 kPa, x1 = 0.1)?
A: 394.71 ± 0.65 m/s

Q: What about the speed of sound (250 K, 1001 kPa, x1 = 0.5422) of the same compound?
A: 352.48 ± 0.58 m/s

Q: What about the speed of sound (250 K, 1955 kPa, x1 = 0.5422) of the same compound?
A: 351.35 ± 0.58 m/s

Q: And the speed of sound (250 K, 2002 kPa, x1 = 0.2)?
A: 379.64 ± 0.63 m/s

Q: What about the speed of sound (250 K, 2004 kPa, x1 = 0.1) of the same compound?
A: 389.75 ± 0.64 m/s

Q: What about the speed of sound (250 K, 2005 kPa, x1 = 0.2) of the same compound?
A: 379.64 ± 0.63 m/s

Q: And the speed of sound (250 K, 2974 kPa, x1 = 0.1)?
A: 385.4 ± 0.64 m/s

Q: And the speed of sound (250 K, 3002 kPa, x1 = 0.2)?
A: 376.26 ± 0.62 m/s

Q: And the speed of sound (250 K, 3014 kPa, x1 = 0.2)?
A: 376.24 ± 0.62 m/s

Q: And the speed of sound (250 K, 3805 kPa, x1 = 0.5422)?
A: 350.46 ± 0.58 m/s

Q: What about the speed of sound (250 K, 4021 kPa, x1 = 0.2) of the same compound?
A: 373.48 ± 0.62 m/s

Q: And the speed of sound (250 K, 4026 kPa, x1 = 0.2)?
A: 373.48 ± 0.62 m/s

Q: What about the speed of sound (250 K, 4027 kPa, x1 = 0.1) of the same compound?
A: 381.43 ± 0.63 m/s

Q: What about the speed of sound (250 K, 4989 kPa, x1 = 0.2) of the same compound?
A: 371.62 ± 0.62 m/s

Q: And the speed of sound (250 K, 5030 kPa, x1 = 0.2)?
A: 371.55 ± 0.66 m/s

Q: What about the speed of sound (250 K, 5041 kPa, x1 = 0.1) of the same compound?
A: 378.44 ± 0.63 m/s

Q: And the speed of sound (250 K, 5536 kPa, x1 = 0.5422)?
A: 351.48 ± 0.58 m/s

Q: What about the speed of sound (250 K, 5903 kPa, x1 = 0.2) of the same compound?
A: 370.69 ± 0.61 m/s

Q: And the speed of sound (250 K, 6000 kPa, x1 = 0.2)?
A: 370.66 ± 0.61 m/s

Q: What about the speed of sound (250 K, 6066 kPa, x1 = 0.1) of the same compound?
A: 376.58 ± 0.62 m/s

Q: What about the speed of sound (250 K, 7002 kPa, x1 = 0.2) of the same compound?
A: 370.93 ± 0.61 m/s

Q: And the speed of sound (250 K, 7089 kPa, x1 = 0.1)?
A: 376.21 ± 0.62 m/s

Q: What about the speed of sound (250 K, 7176 kPa, x1 = 0.5422) of the same compound?
A: 354.43 ± 0.59 m/s

Q: And the speed of sound (250 K, 8018 kPa, x1 = 0.2)?
A: 372.66 ± 0.62 m/s

Q: What about the speed of sound (250 K, 8117 kPa, x1 = 0.1) of the same compound?
A: 377.7 ± 0.62 m/s

Q: What about the speed of sound (250 K, 8849 kPa, x1 = 0.5422) of the same compound?
A: 359.54 ± 0.6 m/s

Q: What about the speed of sound (250 K, 8859 kPa, x1 = 0.5422) of the same compound?
A: 359.5 ± 0.6 m/s

Q: What about the speed of sound (250 K, 9001 kPa, x1 = 0.2) of the same compound?
A: 375.95 ± 0.62 m/s

Q: And the speed of sound (250 K, 9155 kPa, x1 = 0.1)?
A: 381.49 ± 0.63 m/s

Q: What about the speed of sound (250 K, 10175 kPa, x1 = 0.2) of the same compound?
A: 382.17 ± 0.63 m/s

Q: And the speed of sound (250 K, 10204 kPa, x1 = 0.1)?
A: 387.94 ± 0.64 m/s

Q: And the speed of sound (250 K, 11195 kPa, x1 = 0.2)?
A: 389.7 ± 0.64 m/s

Q: And the speed of sound (250 K, 11238 kPa, x1 = 0.1)?
A: 397.06 ± 0.65 m/s

Q: And the speed of sound (250 K, 12284 kPa, x1 = 0.1)?
A: 408.99 ± 0.67 m/s

Q: And the speed of sound (250 K, 13078 kPa, x1 = 0.2)?
A: 408.65 ± 0.67 m/s

Q: And the speed of sound (250 K, 13320 kPa, x1 = 0.1)?
A: 423.21 ± 0.69 m/s

Q: What about the speed of sound (250 K, 14003 kPa, x1 = 0.2) of the same compound?
A: 420.05 ± 0.69 m/s

Q: What about the speed of sound (250 K, 14166 kPa, x1 = 0.1) of the same compound?
A: 436.28 ± 0.72 m/s

Q: What about the speed of sound (250 K, 15044 kPa, x1 = 0.1) of the same compound?
A: 450.92 ± 0.74 m/s

Q: And the speed of sound (250 K, 15316 kPa, x1 = 0.2)?
A: 438.11 ± 0.72 m/s

Q: What about the speed of sound (250 K, 16059 kPa, x1 = 0.2) of the same compound?
A: 449.07 ± 0.74 m/s

Q: And the speed of sound (250 K, 16075 kPa, x1 = 0.1)?
A: 469.1 ± 0.77 m/s

Q: What about the speed of sound (250 K, 17054 kPa, x1 = 0.2) of the same compound?
A: 464.35 ± 0.76 m/s

Q: And the speed of sound (250 K, 17093 kPa, x1 = 0.1)?
A: 487.71 ± 0.8 m/s

Q: What about the speed of sound (250 K, 18084 kPa, x1 = 0.1) of the same compound?
A: 506.09 ± 0.83 m/s

Q: And the speed of sound (250 K, 18089 kPa, x1 = 0.2)?
A: 480.72 ± 0.79 m/s

Q: What about the speed of sound (250 K, 18990 kPa, x1 = 0.1) of the same compound?
A: 522.94 ± 0.85 m/s

Q: And the speed of sound (250 K, 19031 kPa, x1 = 0.2)?
A: 495.86 ± 0.81 m/s

Q: What about the speed of sound (250 K, 19850 kPa, x1 = 0.2) of the same compound?
A: 509.09 ± 0.83 m/s

Q: And the speed of sound (250 K, 19992 kPa, x1 = 0.1)?
A: 541.47 ± 0.88 m/s

Q: And the speed of sound (250 K, 25516 kPa, x1 = 0.1)?
A: 637.9 ± 1 m/s
